Experimental findings from ChEMBL document CHEMBL4680286, “Design, synthesis and antibacterial evaluation of novel oxazolidinone derivatives nitrogen-containing fused heterocyclic moiety” (2021) are described below.

In brackets after ≈: the same amount, converted by molar mass.

Holding throughout (format): functional
Experiment [1] has as its system Staphylococcus aureus. The experiment is described as follows: Antibacterial activity against methicillin-resistant Staphylococcus aureus.
Experiment [2] concerns Staphylococcus aureus. As to the kind of experiment: Antibacterial activity against methicillin-sensitive Staphylococcus aureus.
The subject of experiment [3] is Enterococcus faecium. As to the kind of experiment: Antibacterial activity against vancomycin-resistant Enterococcus faecium.
Experiment [4] concerns Enterococcus faecalis. As to the kind of experiment: Antibacterial activity against linezolid-resistant Enterococcus faecalis.
The subject of experiment [5] is Staphylococcus aureus. The experiment is described as follows: Antibacterial activity against Staphylococcus aureus ATCC 29213.
Experiment [6] concerns Enterococcus faecalis. The experiment is described as follows: Antibacterial activity against hospital acquired linezolid-resistant Enterococcus faecalis clinical isolates.
Experiment [7] relates to Staphylococcus aureus. The experiment is described as follows: Antibacterial activity against hospital acquired methicillin-sensitive Staphylococcus aureus clinical isolates.
Experiment [8] deals with Staphylococcus aureus. The experiment is described as follows: Antibacterial activity against hospital acquired methicillin-resistant Staphylococcus aureus clinical isolates.
Experiment [9] has as its system Enterococcus faecium. The experiment is described as follows: Antibacterial activity against hospital acquired vancomycin-resistant Enterococcus faecium clinical isolates.
In a further experiment the test system is Enterococcus. As to the kind of experiment: Antibacterial activity against Enterococcus.
In the next experiment the test system is Staphylococcus. The experiment is described as follows: Antibacterial activity against Staphylococcus.
A further experiment relates to Streptococcus. The experiment is described as follows: Antibacterial activity against Streptococcus.

Consider `CC(=O)NC[C@H]1CN(c2ccc(-c3ccc(-c4cc5n(n4)CCNC5)cc3)c(F)c2)C(=O)O1`, for which the MIC came out at 2 µg/mL (≈ 4.45 µM) against Staphylococcus aureus [1]; 2 µg/mL (≈ 4.45 µM) in the experiment with Staphylococcus aureus [2]; 0.5 µg/mL (≈ 1.11 µM) with Enterococcus faecium [3]; 2 µg/mL (≈ 4.45 µM) in the experiment with Enterococcus faecalis [4]; 2 µg/mL (≈ 4.45 µM) against Staphylococcus aureus [5].
As for `CC(=O)NC[C@H]1CN(c2ccc(-c3ccc(-c4nc5n(n4)CCN(C)C5)cc3)c(F)c2)C(=O)O1`, the MIC in the experiment with Staphylococcus aureus [1] turned out to be 1 µg/mL (≈ 2.15 µM); in the experiment with Staphylococcus aureus [2] it was 1 µg/mL (≈ 2.15 µM); with Enterococcus faecium [3], 1 µg/mL (≈ 2.15 µM); against Enterococcus faecalis [4] it was 2 µg/mL (≈ 4.31 µM); against Staphylococcus aureus [5], 1 µg/mL (≈ 2.15 µM).
For the molecule `CC(=O)NC[C@H]1CN(c2ccc(-c3ccc(-c4nc5cnccn5n4)cc3)c(F)c2)C(=O)O1`, the MIC against Staphylococcus aureus [1], in the experiment with Staphylococcus aureus [2], in the experiment with Enterococcus faecalis [6], with Staphylococcus aureus [7], in the experiment on Enterococcus faecium [3] and in the experiment on Staphylococcus aureus [8] was 0.5 µg/mL (≈ 1.12 µM) in each case. Besides, the MIC against Enterococcus faecalis [4], against Enterococcus faecium [9] and with Staphylococcus aureus [5] was 0.5 µg/mL (≈ 1.12 µM) in each case.
As to `CC(=O)NC[C@H]1CN(c2ccc(-c3ccc(-c4nnc5cnccn45)cc3)c(F)c2)C(=O)O1`, the MIC with Staphylococcus aureus [1], in the experiment on Staphylococcus aureus [2], against Enterococcus faecium [3], in the experiment with Enterococcus faecalis [4] and against Staphylococcus aureus [5] was 1 µg/mL (≈ 2.24 µM) each time.
Regarding `CC(=O)NC[C@H]1CN(c2ccc(-c3ccc(-c4nc5ccccn5n4)cc3)c(F)c2)C(=O)O1`, the MIC was determined as 1 µg/mL (≈ 2.24 µM) in the experiment with Staphylococcus aureus [1]; 2 µg/mL (≈ 4.49 µM) against Staphylococcus aureus [2]; 0.5 µg/mL (≈ 1.12 µM) in the experiment on Enterococcus faecium [3]; 1 µg/mL (≈ 2.24 µM) with Enterococcus faecalis [4]; 2 µg/mL (≈ 4.49 µM) in the experiment on Staphylococcus aureus [5].
Consider `CC(=O)NC[C@H]1CN(c2ccc(-c3ccc(-c4nc5n(n4)CCNC5)cc3)c(F)c2)C(=O)O1`, for which the MIC turned out to be 2 µg/mL (≈ 4.44 µM) against Staphylococcus aureus [1]; 1 µg/mL (≈ 2.22 µM) in the experiment with Staphylococcus aureus [2]; 1 µg/mL (≈ 2.22 µM) with Enterococcus faecium [3]; 1 µg/mL (≈ 2.22 µM) with Enterococcus faecalis [4]; 2 µg/mL (≈ 4.44 µM) against Staphylococcus aureus [5].
As to `CC(=O)NC[C@H]1CN(c2ccc(-c3ccc(-c4nnc5ccccn45)cc3)c(F)c2)C(=O)O1`, the MIC against Staphylococcus aureus [1] was determined as 2 µg/mL (≈ 4.49 µM); in the experiment with Staphylococcus aureus [2] it was 1 µg/mL (≈ 2.24 µM); against Enterococcus faecium [3], 2 µg/mL (≈ 4.49 µM); with Enterococcus faecalis [4], 1 µg/mL (≈ 2.24 µM); with Staphylococcus aureus [5], 2 µg/mL (≈ 4.49 µM).
Consider `CC(=O)NC[C@H]1CN(c2ccc(-c3ccc(-c4cc5n(n4)CCN(C)C5)cc3)c(F)c2)C(=O)O1`, for which the minimum inhibitory concentration (MIC) in the experiment on Staphylococcus aureus [1] amounted to 1 µg/mL (≈ 2.16 µM); with Staphylococcus aureus [2] it was 1 µg/mL (≈ 2.16 µM); against Enterococcus faecium [3], 0.5 µg/mL (≈ 1.08 µM); in the experiment with Enterococcus faecalis [4], 1 µg/mL (≈ 2.16 µM); against Staphylococcus aureus [5], 1 µg/mL (≈ 2.16 µM).
As for `CC(=O)NC[C@H]1CN(c2ccc(N3CCOCC3)c(F)c2)C(=O)O1` [LINEZOLID], the MIC against Staphylococcus aureus [1] was 1 µg/mL (≈ 2.96 µM); in the experiment on Staphylococcus aureus [2] it was 1 µg/mL (≈ 2.96 µM); with Enterococcus faecalis [6], over 16 µg/mL; against Staphylococcus aureus [7] it was 1 µg/mL (≈ 2.96 µM); against Enterococcus faecium [3] it was 2 µg/mL (≈ 5.93 µM); with Staphylococcus aureus [8] it was 1 µg/mL (≈ 2.96 µM). Besides, the MIC in the experiment on Enterococcus faecalis [4] is over 16 µg/mL; against Enterococcus faecium [9], 1 µg/mL (≈ 2.96 µM); in the experiment on Staphylococcus aureus [5], 1 µg/mL (≈ 2.96 µM).
For `CC(=O)NC[C@H]1CN(c2ccc(-c3ccc(CNCc4cnn[nH]4)cc3)c(F)c2)C(=O)O1` [RADEZOLID], the MIC in the experiment on Staphylococcus aureus [1] was found to be 0.5 µg/mL (≈ 1.14 µM); with Staphylococcus aureus [2], 0.5 µg/mL (≈ 1.14 µM); in the experiment with Enterococcus it was 0.125 µg/mL (≈ 0.285 µM); against Enterococcus faecium [3] it was 0.5 µg/mL (≈ 1.14 µM); in the experiment on Staphylococcus, 0.125 µg/mL (≈ 0.285 µM); against Enterococcus faecalis [4] it was 0.5 µg/mL (≈ 1.14 µM). Also, the MIC against Staphylococcus aureus [5] came out at 0.5 µg/mL (≈ 1.14 µM); in the experiment on Streptococcus it was 0.125 µg/mL (≈ 0.285 µM).
